Results: article PMC7587441, “Plasmodium falciparum Apicomplexan-Specific Glucosamine-6-Phosphate N-Acetyltransferase Is Key for Amino Sugar Metabolism and Asexual Blood Stage Development” (mBio, 2020)

Target: T1, CpGNA1 (Cryptosporidium parvum, UniProt Q5CPU3)
T1 construct: gene SSAT; E. coli BL21 Star; GST cut off with PreScission protease, GPLGS left at N terminus; dimer (sugar site formed by both monomers)
Experiment: X-ray crystal structure, […] Å
Type: binding

T1 sequence (Q5CPU3 whole entry): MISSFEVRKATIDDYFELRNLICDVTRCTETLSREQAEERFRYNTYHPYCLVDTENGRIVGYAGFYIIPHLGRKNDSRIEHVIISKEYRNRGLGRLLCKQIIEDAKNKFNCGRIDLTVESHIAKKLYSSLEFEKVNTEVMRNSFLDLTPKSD

Row | Structure (SMILES) | X-ray crystal structure, 1.95 Å (crystal soaked with 50 mM Glc6P and 50 mM acetyl-CoA, pseudosubstrate in GlcN6P site) | X-ray crystal structure, 1.95 Å (cocrystallized with 10 mM acetyl-CoA, soaked with 50 mM acetyl-CoA and 50 mM Glc6P, acetyl-CoA site)
1 | O=P(O)(O)OC[C@H]1OC(O)[C@H](O)[C@@H](O)[C@@H]1O (some centres unmarked) [Glc6P] | dimeric structure of CpGNA1 in complex with acetyl-CoA and glucose-6-phosphate (Glc6P) | 
2 | CC(=O)SCCNC(=O)CCNC(=O)[C@H](O)C(C)(C)COP(=O)(O)OP(=O)(O)OC[C@H]1O[C@@H](n2cnc3c(N)ncnc32)[C@H](O)[C@@H]1OP(=O)(O)O [acetyl-CoA] |  | dimeric structure of CpGNA1 in complex with acetyl-CoA and glucose-6-phosphate (Glc6P)
